According to patent US20080039442A1, “Compounds With Kv4 Ion Channel Activity” (Devgen NV, priority 2004, published 2008):
Read-outs that look alike come from different tables or passages of the source.

Assays:
[1] = target: T1, human Kv4.3 (Homo sapiens, UniProt Q9UK17); assay: Electropharyngeogram (EPG) analysis of dissected pharynxes of transgenic C. elegans strain UG1755; assay type: ex vivo, transgenic C. elegans expressing human Kv4.3
T1 construct: expressed in transfected cells; host or cells: transgenic C. elegans strain UG1755 (plasmid pGV8 integrated; expression in the pharynx)
T1 sequence (Q9UK17 1-655): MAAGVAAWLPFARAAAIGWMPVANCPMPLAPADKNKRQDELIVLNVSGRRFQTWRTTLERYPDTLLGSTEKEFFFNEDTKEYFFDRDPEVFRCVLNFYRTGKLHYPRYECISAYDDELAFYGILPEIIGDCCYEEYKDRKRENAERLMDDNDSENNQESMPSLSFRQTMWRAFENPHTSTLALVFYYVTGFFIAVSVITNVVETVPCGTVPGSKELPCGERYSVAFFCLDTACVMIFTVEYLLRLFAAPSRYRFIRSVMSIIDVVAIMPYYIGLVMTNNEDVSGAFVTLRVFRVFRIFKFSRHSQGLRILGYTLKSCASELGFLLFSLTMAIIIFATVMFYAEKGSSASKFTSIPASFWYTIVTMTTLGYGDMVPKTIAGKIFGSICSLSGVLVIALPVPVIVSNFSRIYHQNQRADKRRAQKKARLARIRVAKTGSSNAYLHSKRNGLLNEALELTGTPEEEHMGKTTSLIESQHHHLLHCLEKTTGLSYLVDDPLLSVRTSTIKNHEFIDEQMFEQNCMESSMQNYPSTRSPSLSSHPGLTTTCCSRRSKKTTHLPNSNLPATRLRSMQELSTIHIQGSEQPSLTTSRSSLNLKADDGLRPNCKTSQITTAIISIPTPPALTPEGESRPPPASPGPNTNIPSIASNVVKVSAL
Method: The method to describe the construction of a transgenic C. elegans strain expressing human Kv4.3 has been described in WO 03/097682. Briefly, the actual used strain UG1755 has been generated by microinjection into the gonad of a wild-type strain N2 with a mix of 5 ng/μl plasmid pGV8 (human Kv4.3), 20 ng/μl pDW2821 (GFP-marker) and 40 ng/μl genomic C. elegans DNA. Transgenic animals have been isolated and submitted to integration of the extra-chromosomal array into the genome of C. elegans. A line with 50% transmission of the functional expressed human Kv4.3 has been mutagenized with gamma irradiation using a Cobalt source. About 12000 F2 animals have been singled out and their progeny has been screened for the 100% transmission of the GFP marker. Lines with 100% transmission of GFP have been considered as potentially integrated. These lines have been further tested and out-crossed with N2 strain two-times. All lines obtained have been tested for viability, GFP and human Kv4.3 expression. At the end of a selection process, UG1755 was identified as most suitable C. elegans strain amenable to high throughput screening (HTS). […] Briefly, dissected pharynxes of UG1755 C. elegans animals have been prepared and Electropharyngeograms (EPGs) have been recorded using an Axopatch-1D amplifier (Axon instruments). […] The number of ultra short EPGs (10-20 ms) and normal EPGs (100-200 ms) has been analyzed and given as ratio in percentage. […] In addition standard qRT-PCR confirmed the presence of the human Kv4.3 transgene in UG1755 as well as human Kv4.3 protein has been detected with the human Kv4.3 antibody P 0358 in the pharynx of UG1755 animals.
Introducing the human Kv4.3 channel into the C. elegans pharynx influences the C. elegans action potential in a characteristic fashion. […] The pumping end-point can be technically translated into a high-throughput read-out by the use of a pro-fluorescent dye. […] After a defined incubation period, the change of fluorescence intensity in the intestine can be measured with a plate reader.

[2] = target: T2, human Kv4.3/KChIP2.2 potassium channel (Homo sapiens, UniProt Q9UK17); assay: Whole cell patch clamp, CHO-K1 cells stably expressing Kv4.3/KChIP2.2; assay type: cell-based; details: CHO-K1, 1 μM
T2 construct: expressed in transfected cells
T2 sequence (Q9UK17 1-655): T1 sequence (Q9UK17 1-655)
T2 sequence (Q9NS61 1-270 partner): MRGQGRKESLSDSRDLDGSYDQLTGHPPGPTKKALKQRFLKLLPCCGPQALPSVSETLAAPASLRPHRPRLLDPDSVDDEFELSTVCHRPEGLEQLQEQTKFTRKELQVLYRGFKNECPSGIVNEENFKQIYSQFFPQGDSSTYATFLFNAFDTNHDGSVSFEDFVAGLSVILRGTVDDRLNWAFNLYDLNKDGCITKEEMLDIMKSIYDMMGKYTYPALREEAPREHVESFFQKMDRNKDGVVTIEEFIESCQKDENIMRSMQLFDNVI
Outline: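 Whole-cell patch clamp at 20-25 °C, bath pH 7.4 with 4 mM KCl, pipette 130 mM KCl/10 mM EGTA/5 mM Na2ATP. Compound at […] (≤0.1% DMSO), n=2; pulses from −100 mV to +40 mV for 300 ms at 0.1 Hz, P/n (n=5) leak-corrected, cells with 1–50 nA currents only.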

[3] = target: hERG potassium channel (Homo sapiens, UniProt Q12809); assay: Whole cell patch clamp, HEK 293 T-REx HERG cells
hERG potassium channel, sequence (Q12809 whole entry): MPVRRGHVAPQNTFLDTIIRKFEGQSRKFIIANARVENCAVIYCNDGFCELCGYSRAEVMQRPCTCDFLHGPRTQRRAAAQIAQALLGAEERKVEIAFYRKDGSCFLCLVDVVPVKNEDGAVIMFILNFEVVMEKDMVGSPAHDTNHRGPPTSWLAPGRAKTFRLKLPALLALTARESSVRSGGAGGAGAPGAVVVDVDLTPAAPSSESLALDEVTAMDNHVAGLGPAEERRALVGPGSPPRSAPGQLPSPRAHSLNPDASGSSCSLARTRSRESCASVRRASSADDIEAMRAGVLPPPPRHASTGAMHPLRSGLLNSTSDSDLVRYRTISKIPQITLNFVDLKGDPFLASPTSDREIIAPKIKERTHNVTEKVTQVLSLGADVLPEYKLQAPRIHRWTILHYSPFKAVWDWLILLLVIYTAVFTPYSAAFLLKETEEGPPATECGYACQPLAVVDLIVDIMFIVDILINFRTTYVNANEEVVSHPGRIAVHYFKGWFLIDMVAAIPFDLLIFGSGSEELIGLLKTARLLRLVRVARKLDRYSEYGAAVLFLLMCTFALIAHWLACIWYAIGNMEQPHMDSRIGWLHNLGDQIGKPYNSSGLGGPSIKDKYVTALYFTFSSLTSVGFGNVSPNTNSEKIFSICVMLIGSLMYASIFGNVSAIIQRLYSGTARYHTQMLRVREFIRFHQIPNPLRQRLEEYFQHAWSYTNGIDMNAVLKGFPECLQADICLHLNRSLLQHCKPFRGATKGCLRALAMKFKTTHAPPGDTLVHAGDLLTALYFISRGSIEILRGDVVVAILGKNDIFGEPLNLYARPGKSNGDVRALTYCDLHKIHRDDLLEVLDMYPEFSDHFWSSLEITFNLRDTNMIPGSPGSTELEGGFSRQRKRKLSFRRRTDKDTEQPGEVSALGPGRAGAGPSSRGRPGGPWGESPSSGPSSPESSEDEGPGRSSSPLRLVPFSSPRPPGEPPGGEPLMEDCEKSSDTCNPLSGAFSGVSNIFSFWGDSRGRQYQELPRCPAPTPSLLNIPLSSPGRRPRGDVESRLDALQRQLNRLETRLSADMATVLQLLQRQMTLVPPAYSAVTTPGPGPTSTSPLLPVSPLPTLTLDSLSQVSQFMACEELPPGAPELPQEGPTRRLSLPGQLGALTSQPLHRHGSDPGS

[4] = read-out: Kv4.3 charge in %: remaining current measured after application of the compound and relative to the blank
[5] = read-out: Kv4.3 peak in %: remaining peak height measured after application of the compound and relative to the blank

| melting point [°C] | remaining activity at 1 µM [2, 4] [%] | remaining activity at 1 µM [2, 5] [%] | After Application of Compound Ratio Ultra short to Normal EPGs in % ([1]; strain UG1755, 100 μM, n = 15, before application 83 ± 13) [%] | Compound | ultra short action potentials of the human Kv4.3 transgenic C. elegans pharynx (result in words) [1] | hERG (%) ([3]; 10 μM) | hERG (%) ([3]; at 1 μM) [% at 1 μM] |
| --- | --- | --- | --- | --- | --- | --- | --- |
| 146.8 to 147.8 | 50 | 92 | – | COc1ccc(CNC(=O)c2sc3ccc(Cl)cc3c2C)c(OC)c1 [Compound 21] | – | 100 | – |
| 110.7 to 111.5 | 70 | 94 | – | COc1ccc(CNC(=O)c2oc3ccccc3c2C)c(OC)c1 [Compound 43, 3-methyl-benzofuran-2-carboxylic acid 2,4-dimethoxy-benzylamide] | – | 61 | – |
| 76.9 to 77.3 | 45 | 80 | – | O=C(OCc1ccccc1)c1cc2cc(Cl)ccc2o1 [Compound 44, 5-chloro-benzofuran-2-carboxylic benzyl ester] | – | 28 | – |
| 144 to 145.9 | 64 | 91 | – | O=C(NCc1ccc2c(c1)OCO2)c1cc2cc(Cl)ccc2o1 [Compound 92] | – | – | 88 |

Further lines, the molecule ahead of its results:

| Compound | melting point [°C] | remaining activity at 1 µM [2, 4] [%] | remaining activity at 1 µM [2, 5] [%] | After Application of Compound Ratio Ultra short to Normal EPGs in % ([1]; strain UG1755, 100 μM, n = 15, before application 83 ± 13) [%] | ultra short action potentials of the human Kv4.3 transgenic C. elegans pharynx (result in words) [1] | hERG (%) ([3]; 10 μM) | hERG (%) ([3]; at 1 μM) [% at 1 μM] |
| --- | --- | --- | --- | --- | --- | --- | --- |
| Nc1ccncc1 [4-aminopyridine] | – | – | – | – | restored to normal action potentials | – | – |
| COc1ccc(CNC(=O)c2cc3cc(Cl)ccc3n2C)c(OC)c1 [Compound 19, 5-chloro-1-methyl-1H-indole-2-carboxylic acid 2,4-dimethoxy-benzylamide] | 150.8 to 152.7 | 44 | 87 | – | – | 35 | – |
| O=C(NCC1CCCCN1)c1cc(OCC(F)(F)F)ccc1OCC(F)(F)F (centres unmarked) [Flecainide] | – | – | – | 53 ± 24 | restored to normal action potentials | – | – |
